Among the data in BindingDB's records for doi:10.7270/Q2C53J9J (University of Pittsburgh, 2010) are IC50 values, retold here.

In this experiment the target is T1, Glucose-6-phosphate 1-dehydrogenase (Leuconostoc mesenteroides, UniProt P11411).
T1 sequence (P11411 whole entry): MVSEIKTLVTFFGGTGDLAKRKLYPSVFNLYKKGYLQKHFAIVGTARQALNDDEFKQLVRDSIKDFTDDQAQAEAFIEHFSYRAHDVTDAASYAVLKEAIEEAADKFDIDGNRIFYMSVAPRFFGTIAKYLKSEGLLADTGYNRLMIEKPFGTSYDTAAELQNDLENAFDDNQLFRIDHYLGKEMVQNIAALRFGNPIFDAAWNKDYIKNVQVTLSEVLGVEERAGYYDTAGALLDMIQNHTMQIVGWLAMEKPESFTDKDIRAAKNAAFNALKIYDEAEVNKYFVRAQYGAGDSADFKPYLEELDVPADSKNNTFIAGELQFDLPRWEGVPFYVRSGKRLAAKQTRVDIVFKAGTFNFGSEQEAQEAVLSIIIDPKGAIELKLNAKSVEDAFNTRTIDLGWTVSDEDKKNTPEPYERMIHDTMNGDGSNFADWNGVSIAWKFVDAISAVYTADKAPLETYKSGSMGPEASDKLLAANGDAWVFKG
Nature of the experiment: Leuconostoc G6PDH inhibition potency, SAR follow-up, counter-screen for TbHK1 inhibitor project, biochemical, analogue series, IC50 (AID 2579).
On to `COc1ccc(C(=O)NCC(=O)O)cc1`, for which the IC50 (usually the midpoint of a concentration-inhibition curve) was > 25 µM.
With `Cc1cc(=O)n(-c2ccccc2)s1` the figure was > 25 µM; with `O=c1cc(-c2ccccc2)sn1-c1ccccc1`, > 25 µM; with `COc1ccc(C(=O)Nc2ccccc2C(=O)O)cc1Cl`, > 25 µM.
With `O=c1c2ccccc2sn1-c1ccccc1Cl` the figure was > 25 µM.
With `O=c1c2ccccc2sn1-c1ccccc1F` the figure was > 25 µM; with `O=C(Nc1ccccc1)c1cc(F)ccc1S`, > 25 µM.
Take `O=c1c2cc(F)ccc2sn1-c1ccccc1Cl`: the IC50 is > 25 µM.
For `Cc1ccccc1NC(=O)Cn1sc2ccccc2c1=O`, the IC50 is > 25 µM.
The figure for `O=C(Cn1sc2ccccc2c1=O)NCc1ccccc1` is > 25 µM; for `O=c1c2ccc(Br)cc2sn1-c1ccccc1` it is > 25 µM; for `O=C(Cn1sc2ccccc2c1=O)NC1CCCCC1` it is > 25 µM.
For the compound `O=C(Cn1sc2ccccc2c1=O)N1CCCCC1`, the IC50 is > 25 µM.
In the case of `O=c1c2cc(N3CCOCC3)ccc2sn1-c1ccccc1`, the IC50 was > 25 µM.
For `O=c1c2cc(Br)ccc2[s+]([O-])n1-c1ccccc1` (centres undefined), the IC50 was > 25 µM.
Take `N#Cc1ccccc1NC(=O)Cn1sc2ccccc2c1=O`: the IC50 is > 25 µM.
The figure for `O=C(Cn1sc2ccccc2c1=O)Nc1ccccc1Br` is > 25 µM; for `COc1ccc(C(=O)Nc2cccc(Cl)c2)cc1` it is > 25 µM.
With `COc1cccc(C(=O)Nc2cc(Cl)ccc2C(=O)O)c1` the figure was > 25 µM; with `COc1ccc(C(=O)Nc2cc(Cl)ccc2S(N)(=O)=O)cc1`, > 25 µM; with `COC(=O)c1ccc(Cl)cc1NC(=O)c1ccc(Cl)cc1`, > 25 µM.
In the case of `COc1ccccc1C(=O)Nc1cc(Cl)ccc1C(=O)O`, the IC50 was > 25 µM.
On to `COC(=O)c1ccc(Cl)cc1NS(=O)(=O)c1ccc(OC)cc1`, for which the IC50 is > 25 µM.
The figure for `O=C(O)c1ccccc1NC(=O)c1ccccc1C(=O)O` is > 25 µM; for `COc1ccc(S(=O)(=O)Nc2cc(Cl)ccc2C(=O)O)cc1` it is > 25 µM; for `COc1ccc(C(=O)N(C)c2cc(Cl)ccc2C(=O)O)cc1` it is > 25 µM.
As to `COc1ccc(C(=O)Nc2cc(-c3ccccc3)ccc2C(=O)O)cc1`, the IC50 was > 25 µM.
With `COc1ccc(C(=O)O)c(NC(=O)c2ccc(Cl)cc2)c1` the figure was > 25 µM; with `COc1cc(C(=O)Nc2cc(Cl)ccc2C(=O)O)cc(OC)c1OC`, > 25 µM.
With `CCCc1ccc(C(=O)Nc2cc(Cl)ccc2C(=O)O)cc1` the figure was > 25 µM; with `Cn1c2ccccc2c(=O)n1-c1ccccc1` [1-methyl-2-phenyl-3-indazolone], > 25 µM.
With `Cc1ccc(-n2sc3cc(F)ccc3c2=O)c(C)c1` [2-(2,4-dimethylphenyl)-6-fluoranyl-1,2-benzothiazol-3-one] the figure was > 25 µM.
Take `O=c1c2ccccc2sn1-c1cccc(Cl)c1` [2-(3-chlorophenyl)-1,2-benzothiazol-3-one]: the IC50 was > 25 µM.
The figure for `CC(C(=O)Nc1ccccc1)n1sc2ccccc2c1=O` (centres undefined) [2-(3-keto-1,2-benzothiazol-2-yl)-N-phenyl-propionamide (9)] is > 25 µM; for `COc1cccc(-n2sc3ccccc3c2=O)c1` [2-(3-methoxyphenyl)-1,2-benzothiazol-3-one] it is > 25 µM.
Consider `O=c1c2ccccc2sn1-c1ccc(Cl)cc1` [2-(4-chlorophenyl)-1,2-benzothiazol-3-one], for which the IC50 is > 25 µM.
As to `O=c1c2cc(F)ccc2sn1-c1ccc(Cl)cc1` [2-(4-chlorophenyl)-5-fluoranyl-1,2-benzothiazol-3-one], the IC50 is > 25 µM.
For `Cc1ccc(-n2sc3ccccc3c2=O)cc1` [2-(4-methylphenyl)-1,2-benzisothiazol-3(2H)-one], the IC50 was > 25 µM.
With `O=c1c2cccnc2sn1-c1ccccc1` [2-(Phenyl)-isothiazolo[5,4-b]pyridin-3(2H)-one] the figure was > 25 µM.
